Values after ≈ are worked out from the molar mass of the structure shown. Where a name gives a salt, the structure may show the parent alone. Read-outs that look alike come from different tables or passages of the source. One block for each compound: values may come before it.
Legend:
[1] = system: histamine paw oedema in guinea pigs; test: Histamine paw oedema in guinea pigs; assay type: in vivo, guinea pig; settings: Cavia porcellus, oral dose giving paw reaction below 10 units 10 minutes after 50 μg histamine s.p., 2 hours after dosing, read-out: Anaphylaxis in guinea pigs oral effective dose in mg/kg: Histamine oedema
Protocol: Guinea pigs, weighing between 400 and 500 g, are sensitized to ovalbumin by subplantar (s.p.) injection of 0.05 ml of antiserum in the left hind paw. The animals are then starved and orally treated, 24 hours after the sensitization, with saline (=control animals) or a particular dose of the compound under investigation. The histamine injection (at a dose of 50 μg) was given s.p. in the right hind paw 2 hours after the oral pretreatment with the compound.

[2] = system: Guinea pigs sensitized to ovalbumin (anaphylactic shock); test: Anaphylaxis in guinea pigs: protection against death after ovalbumin challenge (survival); assay type: in vivo, guinea pig; settings: Cavia porcellus, estimated ED50, oral, protection against death after i.v. 0.6 mg ovalbumin, read-out: Anaphylaxis in guinea pigs oral effective dose in mg/kg: Survival
Protocol: The anti-anaphylactic and antihistaminic effects of the subject compounds (I) and salts thereof are studied "in vivo" in guinea pigs.
Guinea pigs, weighing between 400 and 500 g, are sensitized to ovalbumin by subplantar (s.p.) injection of 0.05 ml of antiserum in the left hind paw. The animals are then starved and orally treated, 24 hours after the sensitization, with saline (=control animals) or a particular dose of the compound under investigation.
The histamine injection (at a dose of 50 μg) was given s.p. in the right hind paw 2 hours after the oral pretreatment with the compound. The diameters of both hind paws are first measured before the histamine injection is given and again 10 minutes thereafter. The animals are challenged intravenously with 0.6 mg of ovalbumin 30 minutes after the histamine injection. All control animals develop typical primary anaphylactic shock symptoms (coughing, difficult breathing, convulsions) and 85% of these control animals die within 15 minutes after the ovalbumin injection. Protection against death is used as the criterion for possible drug effects and the estimated ED50 -value, i.e. the oral dose whereby the protection is observed in 50% of the guinea pigs, is listed in the tables below.

[3] = system: Guinea-pig ileum strips, histamine-induced contraction; test: Anti-histamine activity in "vitro": histamine-induced spasms of guinea-pig ileum strips; assay type: cell-based; settings: Cavia porcellus, 5 min, histamine 0.5 mg/liter, 5 minutes incubation, concentration giving significant inhibition (50%) of the contraction
Protocol: The histamine--(0.5 mg/liter) induced spasms are recorded Kymographically with an isotonic lever giving a 5-fold magnification.

[4] = Table I-a, read-out: Histamine in "vitro" (ileum) effective conc.
[5] = Table I-b, read-out: Histamine in "vitro" (ileum) effective conc.
[6] = Table I-e, read-out: Histamine in "vitro" (ileum) effective dose

SMILES: Cc1ccc(C(c2ccccc2)N2CCN(CCCn3c(=O)[nH]c4ccccc43)CC2)cc1 (stereo not drawn) [1,3-dihydro-1-[3-{4-[(4-methylphenyl)phenylmethyl]-1-piperazinyl}-propyl}-2H-benzimidazol-2-one]
minimal effective dose ([1]; Table I-a): < 2.5 mg/kg | ED50 ([2]; Table I-a): < 2.5 mg/kg | IC50 [3, 4]: 0.08 µg/mL (≈ 0.182 µM)

SMILES: O=c1[nH]c2ccccc2n1CCCN1CCN(C(c2ccccc2)c2ccc([N+](=O)[O-])cc2)CC1 (stereo not drawn) [1,3-dihydro-1-[3-{4-[(4-nitrophenyl)phenylmethyl]-1-piperazinyl}propyl]-2H-benzimidazol-2-one]
minimal effective dose ([1]; Table I-a): < 2.5 mg/kg | ED50 ([2]; Table I-a): < 2.5 mg/kg | IC50 [3, 4]: 0.16 µg/mL (≈ 0.339 µM)

SMILES: O=c1[nH]c2ccccc2n1CCN1CCC(OC(c2ccc(F)cc2)c2ccc(F)cc2)CC1 [1-[2-{4-[bis(4-fluorophenyl)methoxy]-1-piperidinyl}ethyl]-1,3-dihydro-2H-benzimidazol-2-one hydrochloride.hemihydrate]
minimal effective dose ([1]; Table I-d): 0.31 mg/kg | ED50 ([2]; Table I-d): 0.31 mg/kg | IC50 ([3]; Table I-d, read-out: Histamine in "vitro" (ileum) effective dose): 0.0025 µg/mL

SMILES: O=c1[nH]c2ccccc2n1CCN1CCN(C(c2ccc(F)cc2)c2ccc(F)cc2)CC1 [1-[2-{4-[bis(4-fluorophenyl)methyl]-1-piperazinyl}ethyl]-1,3-dihydro-2H-benzimidazol-2-one hemihydrate]
minimal effective dose ([1]; Table I-a): 0.63 mg/kg | ED50 ([2]; Table I-a): 0.63 mg/kg | IC50 [3, 4]: 0.02 µg/mL

SMILES: O=c1[nH]c2ccccc2n1CCN1CCN(C(c2ccccc2)c2ccc(F)cc2)CC1 (stereo not drawn) [1-[2-{4-[α-(4-fluorophenyl)-α-phenylmethyl]-1-piperazinyl}ethyl]-1,3-dihydro-2H-benzimidazol-2-one]
minimal effective dose ([1]; Table I-a): 0.16 mg/kg | ED50 ([2]; Table I-a): 0.31 mg/kg | IC50 [3, 4]: 0.02 µg/mL (≈ 0.0465 µM)

SMILES: O=c1[nH]c2ccccc2n1CCCN1CCN(C(c2ccccc2)c2ccccc2Cl)CC1 (stereo not drawn) [1-[3-{4-[(2-chlorophenyl)phenylmethyl]-1-piperazinyl}-propyl]-1,3-dihydro-2H-benzimidazol-2-one]
IC50 [3, 4]: 0.08 µg/mL (≈ 0.174 µM)

SMILES: O=c1[nH]c2ccccc2n1CCCN1CCN(C(c2ccccc2)c2ccccc2F)CC1 (stereo not drawn) [1-[3-{4-[(2-fluorophenyl)phenylmethyl]-1-piperazinyl}propyl]-1,3-dihydro-2H-benzimidazol-2-one]
minimal effective dose ([1]; Table I-a): < 2.5 mg/kg | ED50 ([2]; Table I-a): < 2.5 mg/kg | IC50 [3, 4]: 0.02 µg/mL (≈ 0.045 µM)

SMILES: CC(CN1CCN(C(c2ccccc2)c2ccccc2)CC1)Cn1cnc2ccccc21 (stereo not drawn) [1-{3-[4-(diphenylmethyl)-1-piperazinyl]-2-methylpropyl}-1H-benzimidazole trihydrochloride.hemihydrate]
IC50 [3, 5]: 0.02 µg/mL

SMILES: O=c1[nH]c2cccc(Cl)c2n1CCCN1CCN(C(c2ccccc2)c2ccccc2)CC1 [4-chloro-3-{3-[4-(diphenylmethyl)-1-piperazinyl]propyl}-1,3-dihydro-2H-benzimidazol-2-one]
ED50 ([2]; Table I-a): ≥ 2.5 mg/kg | IC50 [3, 4]: 0.08 µg/mL (≈ 0.174 µM)

SMILES: Clc1ccc2c(c1)nc(Cc1ccccc1)n2CCCN1CCN(C(c2ccccc2)c2ccccc2)CC1 [5-chloro-1-{3-[4-(diphenylmethyl)-1-piperazinyl]propyl}-2-(phenylmethyl)-1H-benzimidazole trihydrochloride.hydrate]
ED50 ([2]; Table I-b): 2.5 mg/kg

SMILES: Clc1ccc2c(c1)nc(C1CCCCC1)n2CCCN1CCN(C(c2ccccc2)c2ccccc2)CC1 [5-chloro-2-cyclohexyl-1-{5-[4-diphenylmethyl)-1-piperazinyl]propyl}-1H-benzimidazole]
minimal effective dose ([1]; Table I-b): 2.5 mg/kg | ED50 ([2]; Table I-b): 0.63 mg/kg

SMILES: Clc1ccc2nc(C3CCCCC3)n(CCCN3CCN(C(c4ccccc4)c4ccccc4)CC3)c2c1 [6-chloro-2-cyclohexyl-1-[3-[4-(diphenylmethyl)-1-piperazinyl]propyl}-1H-benzimidazole]
ED50 ([2]; Table I-b): 2.5 mg/kg

SMILES: Clc1ccc2nc(-c3ccccc3)n(CCCN3CCN(C(c4ccccc4)c4ccccc4)CC3)c2c1 [I-b: M=C6H5, R1=6-Cl, (CH2)3, R6=H, R7=H, 6-chloro-1-{3-[4-(diphenylmethyl)-1-piperazinyl]propyl}-2-phenyl-1H-benzimidazole]
ED50 ([2]; Table I-b): 2.5 mg/kg

SMILES: CC(=O)N=c1[nH]c2ccccc2n1CCCN1CCN(C(c2ccccc2)c2ccccc2)CC1 [I-b: M=CH3CONH, R1=H, (CH2)3, R6=H, R7=H, N-[1-{3-[4-(diphenylmethyl)-1-piperazinyl]propyl}-1,3-dihydro-2H-benzimidazol-2-ylidene]acetamide]
ED50 ([2]; Table I-b): 2.5 mg/kg | IC50 [3, 5]: ≥ 0.16 µg/mL

Second part, led by results:

IC50 [3, 4]: 0.02 µg/mL (≈ 0.0414 µM)
SMILES: CNC(=O)n1c(=O)n(CCCN2CCN(C(c3ccccc3)c3ccccc3)CC2)c2ccccc21 [3-{3-[4-(diphenylmethyl)-1-piperazinyl]propyl}-2,3-dihydro-N-methyl-2-oxo-1H-benzimidazole-1-carboxamide]

IC50 [3, 4]: 0.08 µg/mL
SMILES: O=c1n(CCCN2CCN(C(c3ccccc3)c3ccccc3)CC2)c2ccc(Cl)cc2n1-c1ccccc1 [5-chloro-1-{3-[4-(diphenylmethyl)-1-piperazinyl]propyl}-1,3-dihydro-3-phenyl-2H-benzimidazol-2-one dihydrochloride.hemihydrate]

IC50 [3, 5]: 0.01 µg/mL
SMILES: CCc1nc2cc(Cl)ccc2n1CCCN1CCN(C(c2ccccc2)c2ccccc2)CC1 [I-b: M=C2H5, R1=5-Cl, (CH2)3, R6=H, R7=H, 5-chloro-1-{3-[4-(diphenylmethyl)-1-piperazinyl]propyl}-2-ethyl-1H-benzimidazole trihydrochloride.hydrate]

IC50 [3, 5]: ≥ 0.16 µg/mL
SMILES: CCc1nc2ccccc2n1CCN1CCN(C(c2ccccc2)c2ccccc2)CC1 [I-b: M=C2H5, R1=H, (CH2)2, R6=H, R7=H, 1-{2-[4-(diphenylmethyl)-1-piperazinyl]ethyl}-2-ethyl-1H-benzimidazole trihydrochloride.hydrate]

IC50 [3, 5]: 0.08 µg/mL (≈ 0.164 µM)
SMILES: c1ccc(-c2nc3ccccc3n2CCCN2CCN(C(c3ccccc3)c3ccccc3)CC2)cc1 [I-b: M=C6H5, R1=H, (CH2)3, R6=H, R7=H, 1-{3-[4-(diphenylmethyl)-1-piperazinyl]propyl}-2-phenyl-1H-benzimidazole]

IC50 [3, 5]: ≥ 0.16 µg/mL
SMILES: c1ccc(Cc2nc3ccccc3n2CCCN2CCN(C(c3ccccc3)c3ccccc3)CC2)cc1 [I-b: M=C6H5CH2, R1=H, (CH2)3, R6=H, R7=H, 1-{3-[4-(diphenylmethyl)-1-piperazinyl]propyl}-2-(phenylmethyl)-1H-benzimidazole trihydrochloride.trihydrate]

IC50 [3, 6]: 0.16 µg/mL (≈ 0.359 µM)
SMILES: O=c1[nH]c2ccccc2n1CCCN1CCN(C(c2ccncc2)c2ccc(F)cc2)CC1 (stereo not drawn) [I-e: Ar1=4-FC6H4, Ar2=4-pyridinyl, 1-[3-{4-[(4-fluorophenyl)(4-pyridinyl)methyl]-1-piperazinyl}propyl]-1,3-dihydro-2H-benzimidazol-2-one]
minimal effective dose ([1]; Table I-e): ≤ 2.5 mg/kg

IC50 [3, 6]: 0.16 µg/mL (≈ 0.352 µM)
SMILES: Cc1ccc(C)c(C(c2ccccc2)N2CCN(CCCn3c(=O)[nH]c4ccccc43)CC2)c1 (stereo not drawn) [I-e: Ar1=C6H5, Ar2=2,5-(CH3)2C6H3, 1-[3-{4-[(2,5-dimethylphenyl)phenylmethyl]-1-piperazinyl}propyl]-1,3-dihydro-2H-benzimidazol-2-one]

IC50 [3, 6]: 0.16 µg/mL (≈ 0.374 µM)
SMILES: O=c1[nH]c2ccccc2n1CCCN1CCN(C(c2ccccc2)c2ccccn2)CC1 (stereo not drawn) [I-e: Ar1=C6H5, Ar2=2-pyridinyl, 1,3-dihydro-1-[3-{4-[phenyl(2-pyridinyl)methyl]-1-piperazinyl}propyl]-2H-benzimidazol-2-one]
minimal effective dose ([1]; Table I-e): 2.5 mg/kg

IC50 [3, 6]: 0.08 µg/mL (≈ 0.187 µM)
SMILES: O=c1[nH]c2ccccc2n1CCCN1CCN(C(c2ccccc2)c2cccnc2)CC1 (stereo not drawn) [I-e: Ar1=C6H5, Ar2=3-pyridinyl, 1,3-dihydro-1-[3-{4-[phenyl(3-pyridinyl)methyl]-1-piperazinyl}propyl]-2H-benzimidazol-2-one]
minimal effective dose ([1]; Table I-e): < 2.5 mg/kg

Source: patent US4250176A, “Piperazine derivatives” (priority 1979, dated 1981)
